This note sets out measurements from patent US20240270744A1 (Hoffmann-La Roche Inc., priority 2021, published 2024).

Common to all, as to test: Radioligand binding assay, competition for [3H]RO7239181, γ1-containing GABAA subtypes
The target of assay [1] is human GABAA α5β2γ1 receptor (Homo sapiens (Human), UniProt P31644+Q8N1C3). As to conditions: Table 1; [3H]RO7239181 displacement, membranes from HEK293F cells, mean of two determinations.
Assay [2] addresses human GABAA α1β2γ1 receptor (Homo sapiens (Human), UniProt P14867+Q8N1C3). To be noted: Table 1; [3H]RO7239181 displacement, membranes from HEK293F cells, mean of two determinations.
For assay [3], the target named is human GABAA α2β2γ1 receptor (Homo sapiens (Human), UniProt P47869+Q8N1C3). To be noted: for Ki: [3H]RO7239181 displacement.

Usually Ki stands for the dissociation constant of the complex between target and ligand, obtained from inhibition or displacement. On to `C[C@H](O)CNC(=O)c1nc2n(n1)-c1cnc(C(F)(F)F)c(Cl)c1C(c1c(F)cccc1F)=N[C@H]2C` [Example 14, (7S)-11-chloro-9-(2,6-difluorophenyl)-N-[(2S)-2-hydroxypropyl]-7-methyl-12-(trifluoromethyl)-2,3,5,8,13-pentazatricyclo[8.4.0.02,6]tetradeca-1(10),3,5,8,11,13-hexaene-4-carboxamide], for which the Ki in assay [1] was 3.7 nM; in assay [2] it was 91.8 nM; in assay [3] (Ki h-GABAA α2β2γ1, Table 1, membranes from HEK293F cells, mean of two determinations) it was 46 nM; in assay [3] (Ki h-GABAA α2β2γ1, Table 2), 39.2 nM. Further, the “γ2/γ1 Selectivity Ratio” value in assay [3] (Table 1, Ki α1β3γ2 (nM)/Ki α2β2γ1 (nM)) was 190. Also, in assay [3] (Table 1, Log of the γ2/γ1 Ki ratio), the LogSel is recorded as 2.28.
